Patent US20260085094A1, “STAPLED PEPTIDE AND USE THEREOF” (priority 2021, published 2026)

Assays:
[1] = molecular target: T1, GLP-1R (Homo sapiens, UniProt P43220); test: In vitro GLP-1R agonistic activity test (cAMP assay); assay type: cell-based; conditions: GLP-1R HEK293 cell line
T1 construct: host or cells: HEK293
Procedure: (§1) [table] The compounds to be tested were diluted 4-fold at 10 wells, starting from an initial concentration of 30 μM. […] The TopSeal-A film was removed, and readout was performed on EnVision.

[2] = molecular target: T2, GIPR (Homo sapiens, UniProt P48546); test: In vitro GIPR agonistic activity test (cAMP assay); assay type: cell-based; conditions: GIPR CHO cell line, read-out: GIP-1 EC50
T2 construct: host or cells: CHO
T2 sequence (P48546 22-466): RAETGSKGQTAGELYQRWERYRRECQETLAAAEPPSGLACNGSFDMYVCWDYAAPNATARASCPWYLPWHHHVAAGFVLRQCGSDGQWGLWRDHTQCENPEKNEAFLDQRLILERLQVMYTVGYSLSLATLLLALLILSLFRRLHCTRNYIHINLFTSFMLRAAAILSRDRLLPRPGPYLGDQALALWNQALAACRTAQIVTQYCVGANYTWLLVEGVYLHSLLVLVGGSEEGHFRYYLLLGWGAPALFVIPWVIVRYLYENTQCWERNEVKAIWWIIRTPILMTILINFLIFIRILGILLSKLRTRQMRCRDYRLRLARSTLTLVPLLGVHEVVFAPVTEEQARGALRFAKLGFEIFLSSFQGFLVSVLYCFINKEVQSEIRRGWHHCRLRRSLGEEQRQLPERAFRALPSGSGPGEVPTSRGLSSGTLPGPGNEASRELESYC
Procedure: as §1

[3] = molecular target: T3, GCGR (Homo sapiens, UniProt P47871); test: In vitro GCGR agonistic activity test (cAMP assay); assay type: cell-based; conditions: GCGR HEK293 cell line, read-out: GCG EC50
T3 construct: host or cells: HEK293
Procedure: as §1

[4] = in vivo; design: species or system SD rats; conditions: rat, sc, 0.048 mg/kg
Procedure: (§2) To test the in vivo pharmacokinetics of the polypeptides of the present disclosure in SD rats. The pharmacokinetic characteristics of the polypeptides of the present disclosure after subcutaneous injection in rodents were tested according to SOP. In the experiment, the polypeptide was prepared into a clear solution, which was administered to rats by single subcutaneous injection (SC, 0.048 mpk). The vehicle for injection was citrate buffer (20 mM, pH=7). The whole blood was collected and prepared to obtain the plasma. The drug concentration was analyzed by LC-MS/MS method, and the pharmacokinetic parameters were calculated using Phoenix WinNonlin software.

[5] = in vivo; design: species or system C57BL/6 mice; conditions: sc, 0.048 mg/kg
Procedure: as §2, with “C57BL/6 mice.” for “SD rats.”, “after intravenous injection and” for “after”, “mice” for “rats”, “for subcutaneous” for “for”

[6] = in vivo; design: species or system cynomolgus macaques; conditions: cynomolgus monkey, sc, 0.02 mg/kg
Procedure: as §2, with “cynomolgus macaques.” for “SD rats.”, “after intravenous injection and” for “after”, “mammals” for “rodents”, “cynomolgus macaques” for “rats”, “0.02” for “0.048”, “for subcutaneous” for “for”

T3 sequence (P47871 26-477, species assumed): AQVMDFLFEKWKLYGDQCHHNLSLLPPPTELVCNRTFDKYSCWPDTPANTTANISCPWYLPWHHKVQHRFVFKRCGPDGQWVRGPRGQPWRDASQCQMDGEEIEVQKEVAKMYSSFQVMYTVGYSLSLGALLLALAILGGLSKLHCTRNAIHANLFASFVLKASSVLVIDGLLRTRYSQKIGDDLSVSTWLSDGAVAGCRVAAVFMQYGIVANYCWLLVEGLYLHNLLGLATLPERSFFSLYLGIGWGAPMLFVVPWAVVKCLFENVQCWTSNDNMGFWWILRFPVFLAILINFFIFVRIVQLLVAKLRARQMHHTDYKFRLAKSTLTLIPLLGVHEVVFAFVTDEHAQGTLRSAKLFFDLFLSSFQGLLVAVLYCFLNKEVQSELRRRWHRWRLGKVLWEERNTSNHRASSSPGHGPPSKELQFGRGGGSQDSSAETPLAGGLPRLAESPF
T1 sequence (P43220 24-463, species assumed): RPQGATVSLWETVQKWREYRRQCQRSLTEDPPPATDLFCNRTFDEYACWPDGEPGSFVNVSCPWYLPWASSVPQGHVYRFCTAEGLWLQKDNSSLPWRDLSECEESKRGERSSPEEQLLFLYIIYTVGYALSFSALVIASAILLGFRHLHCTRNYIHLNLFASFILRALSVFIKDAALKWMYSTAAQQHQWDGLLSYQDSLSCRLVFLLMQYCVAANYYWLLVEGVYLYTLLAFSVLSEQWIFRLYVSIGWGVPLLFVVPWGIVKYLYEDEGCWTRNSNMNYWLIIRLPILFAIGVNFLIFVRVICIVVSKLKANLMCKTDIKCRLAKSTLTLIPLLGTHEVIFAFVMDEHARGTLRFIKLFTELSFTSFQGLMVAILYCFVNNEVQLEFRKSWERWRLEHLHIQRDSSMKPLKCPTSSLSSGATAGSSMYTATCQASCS

Structure (SMILES) | EC50 [1] [nM] | EC50 [2] [nM] | EC50 [3] [nM] | AUC(0-t) ([4]; SD) [µM·h] | Cmax ([4]; SD) [nM] | Tmax ([4]; SD) [h] | half-life ([4]; SD) [h] | AUC(0-t) ([5]; C57BL/6, mouse) [µM·h] | Cmax ([5]; C57BL/6, mouse) [nM] | Tmax ([5]; C57BL/6, mouse) [h] | half-life ([5]; C57BL/6, mouse) [h] | AUC(0-t) [6] [µM·h] | Cmax [6] [nM] | Tmax [6] [h] | half-life [6] [h] | also measured
CC[C@H](C)[C@H](NC(=O)[C@H](Cc1ccccc1)NC(=O)[C@H](C)NC(=O)C(C)(C)NC(=O)[C@H](CCC(N)=O)NC(=O)[C@H](C)NC(=O)[C@H](CCCCN)NC(=O)[C@H](CCCCN)NC(=O)[C@H](CC(=O)O)NC(=O)[C@H](CC(C)C)NC(=O)[C@](C)(CC(C)C)NC(=O)[C@@H](NC(=O)[C@H](CO)NC(=O)[C@H](Cc1ccc(O)cc1)NC(=O)[C@H](CC(=O)O)NC(=O)[C@H](CO)NC(=O)[C@@H](NC(=O)[C@H](Cc1ccccc1)NC(=O)[C@@H](NC(=O)CNC(=O)[C@H](CCC(N)=O)NC(=O)C(C)(C)NC(=O)[C@@H](N)Cc1ccc(O)cc1)[C@@H](C)O)[C@@H](C)O)[C@@H](C)CC)C(=O)N[C@@H](CCC(=O)O)C(=O)N[C@H]1CCCCNC(=O)CN(C(=O)COCCOCCNC(=O)COCCOCCNC(=O)CC[C@H](NC(=O)CCCCCCCCCCCCCCCCCCC(=O)O)C(=O)O)CC(=O)NCCCC[C@@H](C(=O)NCC(=O)NCC(=O)N2CCC[C@H]2C(=O)N[C@@H](CO)C(=O)N[C@@H](CO)C(=O)NCC(=O)N[C@@H](C)C(=O)N2CCC[C@H]2C(=O)N2CCC[C@H]2C(=O)N2CCC[C@H]2C(=O)N[C@@H](CO)C(N)=O)NC(=O)[C@H](CC(C)C)NC(=O)[C@H](CC(C)C)NC1=O [WX005] | 0.063 | 0.14 | 1.4 | 1.21 | 26 | 28 | 23 | 2.13 | 72 | 12 | 15 | 5.81 | 43 | 48 | 100 | –
CC[C@H](C)[C@H](NC(=O)[C@H](Cc1ccccc1)NC(=O)[C@H](C)NC(=O)[C@@H]1CCCCNC(=O)CN(C(=O)COCCOCCNC(=O)COCCOCCNC(=O)CC[C@H](NC(=O)CCCCCCCCCCCCCCCCCCC(=O)O)C(=O)O)CC(=O)NCCCC[C@H](NC(=O)[C@H](CCCCN)NC(=O)[C@H](CC(=O)O)NC(=O)[C@H](CC(C)C)NC(=O)[C@](C)(CC(C)C)NC(=O)[C@@H](NC(=O)[C@H](CO)NC(=O)[C@H](Cc2ccc(O)cc2)NC(=O)[C@H](CC(=O)O)NC(=O)[C@H](CO)NC(=O)[C@@H](NC(=O)[C@H](Cc2ccccc2)NC(=O)[C@@H](NC(=O)CNC(=O)[C@H](CCC(N)=O)NC(=O)C(C)(C)NC(=O)[C@@H](N)Cc2ccc(O)cc2)[C@@H](C)O)[C@@H](C)O)[C@@H](C)CC)C(=O)N[C@@H](C)C(=O)N[C@@H](CCC(N)=O)C(=O)N1)C(=O)N[C@@H](CCC(=O)O)C(=O)N[C@@H](Cc1ccc(O)cc1)C(=O)N[C@@H](CC(C)C)C(=O)N[C@@H](CC(C)C)C(=O)N[C@@H](CCC(=O)O)C(=O)NCC(=O)NCC(=O)N1CCC[C@H]1C(=O)N[C@@H](CO)C(=O)N[C@@H](CO)C(=O)NCC(=O)N[C@@H](C)C(=O)N1CCC[C@H]1C(=O)N1CCC[C@H]1C(=O)N1CCC[C@H]1C(=O)N[C@@H](CO)C(N)=O [WX001] | 0.072 | 0.13 | 0.55 | 0.718 | 17 | 24 | 25 | 1.83 | 58 | 12 | 16 | 5.29 | 49 | 32 | 61 | –
CC[C@H](C)[C@H](NC(=O)[C@H](Cc1ccccc1)NC(=O)[C@H](C)NC(=O)C(C)(C)NC(=O)[C@@H]1CCCCNC(=O)CN(C(=O)COCCOCCNC(=O)COCCOCCNC(=O)CC[C@H](NC(=O)CCCCCCCCCCCCCCCCCCC(=O)O)C(=O)O)CC(=O)NCCCC[C@H](NC(=O)[C@H](CC(=O)O)NC(=O)[C@H](CC(C)C)NC(=O)[C@](C)(CC(C)C)NC(=O)[C@@H](NC(=O)[C@H](CO)NC(=O)[C@H](Cc2ccc(O)cc2)NC(=O)[C@H](CC(=O)O)NC(=O)[C@H](CO)NC(=O)[C@@H](NC(=O)[C@H](Cc2ccccc2)NC(=O)[C@@H](NC(=O)CNC(=O)[C@H](CCC(N)=O)NC(=O)C(C)(C)NC(=O)[C@@H](N)Cc2ccc(O)cc2)[C@@H](C)O)[C@@H](C)O)[C@@H](C)CC)C(=O)N[C@@H](CCCCN)C(=O)N[C@@H](C)C(=O)N1)C(=O)N[C@@H](CCC(=O)O)C(=O)N[C@@H](Cc1ccc(O)cc1)C(=O)N[C@@H](CC(C)C)C(=O)N[C@@H](CC(C)C)C(=O)N[C@@H](CCC(=O)O)C(=O)NCC(=O)NCC(=O)N1CCC[C@H]1C(=O)N[C@@H](CO)C(=O)N[C@@H](CO)C(=O)NCC(=O)N[C@@H](C)C(=O)N1CCC[C@H]1C(=O)N1CCC[C@H]1C(=O)N1CCC[C@H]1C(=O)N[C@@H](CO)C(N)=O [WX002] | – | – | – | – | 30 | – | – | – | 69 | – | – | 5.1 | 54 | 24 | 52 | AUC(0-t) [4]: 1.06 µM·h; Tmax [4]: 20 h; half-life [4]: 14 h; AUC(0-t) ([5]; mouse): 2.01 µM·h; Tmax ([5]; mouse): 8 h; half-life ([5]; mouse): 10 h
